Experimental data: US10689359B2, “Crystals of quinazoline derivative and preparation method therefor” (Xuanzhu Pharma Co., Ltd., priority 2015, dated 2020)

How the values were obtained:
[1] = Study on stability of Crystal form I, II and III (influencing factors; character, moisture content, relevant substances by HPLC, XRPD); assay type: physicochemical; conditions: for Stability of the samples (conclusion): influencing factor conditions (high temperature, high moisture, light)
Experimental: The samples were tested for character, relevant substances, moisture content, XRPD pattern, etc. […] The samples were tested for relevant substances, content, character, moisture content, XRPD pattern, etc. During the study, the uncovered experimental samples were kept in cultured dishes in the air. […] During the study, the uncovered experimental samples were kept in cultured dishes in the air. […] With respect to relevant substances, in accordance with High Performance Liquid Chromatography in Appendix V D in Pharmacopoeia of the People's Republic of China (2010), the samples were determined by area normalization method. Instrument: High Performance Liquid Chromatographic Instrument (Agilent 1200/1260 series) Chromatographic column: chromatographic column using octylsilane chemically bonded silica as filler (HC-C8, 4.6×250 mm, 5 μm) Column temperature: 30° C. Detection wavelength: 230 nm Mobile phase: mobile phase consisting of 0.03 mol/L diammonium hydrogen phosphate/0.03 mol/L sodium perchlorate solution-acetonitrile, and reversed-phase gradient elution was employed. Flow rate: 1.0 mL/min Injection volume: 10 μL Method for determining moisture content: the moisture content was determined in accordance with First Method for Determining Moisture Content B (Coulometric Titration) in Appendix VIII M in Pharmacopoeia of the People's Republic of China (2010).

[2] = Evaluation on pharmacokinetics in SD rats, intragastric administration; assay type: in vivo; conditions: 5 mg/kg; for AUC0-t / AUCinf / Cmax (maximum blood concentration) / T1/2 (drug elimination half-life) / Tmax (time to maximum blood concentration): suspension in water
Experimental: An amorphous form of a compound of Formula (I), the preparation method of which could be found in the particular Examples as disclosed in the international patent application (Publication No. WO 2012027960 A1).
Test animal: SD rats, male, weighed 190-250 g, 6 rats for each crystal form, purchased from Beijing Vital River Laboratory Animal Technology Co., Ltd.
Administration route: intragastric administration, at an administration dose of 5 mg/kg, and an administration volume of 10 mL/kg.
Blood collection: whole blood (about 100 μL) was collected from tail vein 10 min, 30 min, 1 h, 2 h, 4 h, 6 h, 8 h, and 24 h after administration, and added to K2EDTA-containing anticoagulation tubes. The whole blood sample was centrifuged for 6 min at 4° C., 8000 rpm in a high speed centrifuge, and plasma was separated. Plasma needed to be prepared within 30 min after blood collection, and stored at −80° C. in a refrigerator.
Plasma sample analysis: the plasma samples were analyzed by protein precipitation: to plasma (20 μL), an internal standard Gefitinib (200 μL, 50 ng/mL acetonitrile solution) was added; the resultant mixture was vortexed at 500 rpm for 5 min, and centrifuged at 4000 rpm for 20 min in a high speed centrifuge; to the supernatant (100 μL), water (100 μL) was added; the resultant mixture was mixed homogeneously under vortexing and analyzed by LC-MS/MS for blood concentration.
Calculation for PK parameters: PK parameters were calculated by using Pharsight Phoenix 6.2 software.

[3] = Comparison of stability between crystal forms and amorphous form, 60° C. uncovered, relevant substances by HPLC; assay type: physicochemical; conditions: for Change in total relevant substances (conclusion): 60° C. uncovered, 5 days and 10 days
Experimental: Instrument: High Performance Liquid Chromatographic Instrument (Agilent 1260 series) Chromatographic column: chromatographic column using octylsilane chemically bonded silica as filler (HC-C8, 4.6×250 mm, 5 μm) Column temperature: 30° C. Detection wavelength: 230 nm Mobile phase: Mobile phase consisting of 0.06 mol/L sodium dihydrogen phosphate/0.06 mol/L sodium perchlorate solution-acetonitrile, and reversed-phase gradient elution was employed. Flow rate: 1.0 mL/min Injection volume: 10 μL

[4] = 10 days, 40° C./RH75% uncovered
[5] = influencing factor condition for 10 days

With `C=CC(=O)Nc1cc2c(Nc3ccc(F)c(Cl)c3)ncnc2cc1OCC1CC2(CCN(C)CC2)C1` [Crystal form II, N-(4-((3-chloro-4-fluorophenyl)amino)-7-((7-methyl-7-azaspiro[3.5]nonan-2-yl)methoxy)quinazolin-6-yl)acrylamide] the Character ([1]; 0 day) was “light yellow”, the Crystal form ([1]; 0 day) was “Crystal” and the Moisture content ([1]; 0 day) was 3.5%. The Relevant substance ([1]; 0 day) was 0.37%, the Character ([1]; 5 days, 40° C./RH75% covered) was “light yellow” and the Crystal form ([1]; 5 days, 40° C./RH75% covered) was “the same”. The Moisture content ([1]; 5 days, 40° C./RH75% covered) was 3.6%, the Relevant substance ([1]; 5 days, 40° C./RH75% covered) was 0.34% and the Character ([1]; 5 days, 40° C./RH75% uncovered) was “light yellow”. The Crystal form ([1]; 5 days, 40° C./RH75% uncovered) was “the same”, the Moisture content ([1]; 5 days, 40° C./RH75% uncovered) was 3.7% and the Relevant substance ([1]; 5 days, 40° C./RH75% uncovered) was 0.38%. For the same compound, the Character ([1]; 5 days, 60° C. covered) was “light yellow”, the Crystal form ([1]; 5 days, 60° C. covered) was “the same” and the Moisture content ([1]; 5 days, 60° C. covered) was 3.6%. For the same compound, the Relevant substance ([1]; 5 days, 60° C. covered) was 0.33%, the Character ([1]; 5 days, 60° C. uncovered) was “light yellow” and the Crystal form ([1]; 5 days, 60° C. uncovered) was “the same”. For the same compound, the Moisture content ([1]; 5 days, 60° C. uncovered) was 3.6%, the Relevant substance ([1]; 5 days, 60° C. uncovered) was 0.35% and the Character ([1]; 5 days, RH-75%) was “light yellow”. The Crystal form ([1]; 5 days, RH-75%) was “the same”, the Moisture content ([1]; 5 days, RH-75%) was 3.6% and the Relevant substance ([1]; 5 days, RH-75%) was 0.35%. The Character ([1]; 5 days, RH-92.5%) was “light yellow”, the Crystal form ([1]; 5 days, RH-92.5%) was “the same” and the Moisture content ([1]; 5 days, RH-92.5%) was 3.7%. For the same compound, the Relevant substance ([1]; 5 days, RH-92.5%) was 0.36%, the Character ([1]; 5 days, light) was “light yellow” and the Crystal form ([1]; 5 days, light) was “the same”. For the same compound, the Moisture content ([1]; 5 days, light) was 3.7%, the Relevant substance ([1]; 5 days, light) was 0.35% and the Character ([1]; 10 days, 40° C./RH75% covered) was “light yellow”. For the same compound, the Crystal form ([1]; 10 days, 40° C./RH75% covered) was “the same”, the Moisture content ([1]; 10 days, 40° C./RH75% covered) was 3.6% and the Relevant substance ([1]; 10 days, 40° C./RH75% covered) was 0.33%. The Character [1, 4] was “light yellow”, the Crystal form [1, 4] was “the same” and the Moisture content [1, 4] was 3.8%. The Relevant substance [1, 4] was 0.33%, the Character ([1]; 10 days, 60° C. covered) was “light yellow” and the Crystal form ([1]; 10 days, 60° C. covered) was “the same”. The Moisture content ([1]; 10 days, 60° C. covered) was 3.7%, the Relevant substance ([1]; 10 days, 60° C. covered) was 0.36% and the Character ([1]; 10 days, 60° C. uncovered) was “light yellow”. The Crystal form ([1]; 10 days, 60° C. uncovered) was “the same”, the Moisture content ([1]; 10 days, 60° C. uncovered) was 3.7% and the Relevant substance ([1]; 10 days, 60° C. uncovered) was 0.43%. The Character ([1]; 10 days, RH-75%) was “light yellow”, the Crystal form ([1]; 10 days, RH-75%) was “the same” and the Moisture content ([1]; 10 days, RH-75%) was 3.7%. The Relevant substance ([1]; 10 days, RH-75%) was 0.36%, the Character ([1]; 10 days, RH-92.5%) was “light yellow” and the Crystal form ([1]; 10 days, RH-92.5%) was “the same”. For the same compound, the Moisture content ([1]; 10 days, RH-92.5%) was 3.7%, the Relevant substance ([1]; 10 days, RH-92.5%) was 0.34% and the Character ([1]; 10 days, light) was “light yellow”. For the same compound, the Crystal form ([1]; 10 days, light) was “the same”, the Moisture content ([1]; 10 days, light) was 3.7% and the Relevant substance ([1]; 10 days, light) was 0.35%. The “Change in Crystal form (XRPD pattern test)” value [1, 5] was “no change”, the Change in impurities [1, 5] was “no significant change” and the “Stability of the samples (conclusion)” value ([1]; 10 days) was “relatively stable”. For the same compound, the “Pharmacokinetic properties (conclusion)” value [2] was “good pharmacokinetic properties”, the AUC0-t [2] was 1536 ng·h/mL and the AUCinf [2] was 1591 ng·h/mL. For the same compound, the “Cmax (maximum blood concentration)” value [2] was 135 ng/mL, the “T1/2 (drug elimination half-life)” value [2] was 4.59 h and the “Tmax (time to maximum blood concentration)” value [2] was 3 h. For the same compound, the Total relevant substances ([3]; 0 day) was 0.64%, the “Change in total relevant substances (conclusion)” value [3] was “little increase in total relevant substances” and the Total relevant substances ([3]; 60° C. uncovered-5 days) was 0.66%. For the same compound, the Total relevant substances ([3]; 60° C. uncovered-10 days) was 0.70%.

With `C=CC(=O)Nc1cc2c(Nc3ccc(F)c(Cl)c3)ncnc2cc1OCC1CC2(CCN(C)CC2)C1` [Crystal form III, N-(4-((3-chloro-4-fluorophenyl)amino)-7-((7-methyl-7-azaspiro[3.5]nonan-2-yl)methoxy)quinazolin-6-yl)acrylamide] the Character ([1]; 0 day) was “light yellow powder”, the Moisture content ([1]; 0 day) was 3.5% and the Total relevant substances ([1]; 0 day) was 0.66%. The “Increase of total relevant substances” value ([1]; 60° C. uncovered, 5 days vs Day 0) was 0.28%, the “Increase of total relevant substances” value ([1]; 60° C. uncovered, 10 days vs Day 0) was 0.44% and the Character ([1]; 5 days, 40° C./RH75% covered) was “light yellow powder”. For the same compound, the Moisture content ([1]; 5 days, 40° C./RH75% covered) was 3.6%, the Total relevant substances ([1]; 5 days, 40° C./RH75% covered) was 0.57% and the Character ([1]; 5 days, 40° C./RH75% uncovered) was “light yellow powder”. The Moisture content ([1]; 5 days, 40° C./RH75% uncovered) was 3.9%, the Total relevant substances ([1]; 5 days, 40° C./RH75% uncovered) was 0.63% and the Character ([1]; 5 days, 60° C. covered) was “light yellow powder”. For the same compound, the Moisture content ([1]; 5 days, 60° C. covered) was 3.6%, the Total relevant substances ([1]; 5 days, 60° C. covered) was 0.60% and the Character ([1]; 5 days, 60° C. uncovered) was “light yellow powder”. For the same compound, the Moisture content ([1]; 5 days, 60° C. uncovered) was 3.5%, the Total relevant substances ([1]; 5 days, 60° C. uncovered) was 0.94% and the Character ([1]; 5 days, RH-75%) was “light yellow powder”. The Moisture content ([1]; 5 days, RH-75%) was 4.0%, the Total relevant substances ([1]; 5 days, RH-75%) was 0.62% and the Character ([1]; 5 days, RH-92.5%) was “light yellow powder”. For the same compound, the Moisture content ([1]; 5 days, RH-92.5%) was 4.0%, the Total relevant substances ([1]; 5 days, RH-92.5%) was 0.58% and the Character ([1]; 5 days, visible light) was “light yellow powder”. For the same compound, the Moisture content ([1]; 5 days, visible light) was 3.7%, the Total relevant substances ([1]; 5 days, visible light) was 0.68% and the Character ([1]; 10 days, 40° C./RH75% covered) was “light yellow powder”. The Moisture content ([1]; 10 days, 40° C./RH75% covered) was 3.6%, the Total relevant substances ([1]; 10 days, 40° C./RH75% covered) was 0.59% and the Character [1, 4] was “light yellow powder”. The Moisture content [1, 4] was 3.9%, the Total relevant substances [1, 4] was 0.62% and the Character ([1]; 10 days, 60° C. covered) was “light yellow powder”. The Moisture content ([1]; 10 days, 60° C. covered) was 3.5%, the Total relevant substances ([1]; 10 days, 60° C. covered) was 0.64% and the Character ([1]; 10 days, 60° C. uncovered) was “light yellow powder”. For the same compound, the Moisture content ([1]; 10 days, 60° C. uncovered) was 3.4%, the Total relevant substances ([1]; 10 days, 60° C. uncovered) was 1.1% and the Character ([1]; 10 days, RH-75%) was “light yellow powder”. For the same compound, the Moisture content ([1]; 10 days, RH-75%) was 3.8%, the Total relevant substances ([1]; 10 days, RH-75%) was 0.56% and the Character ([1]; 10 days, RH-92.5%) was “light yellow powder”. For the same compound, the Moisture content ([1]; 10 days, RH-92.5%) was 4.3%, the Total relevant substances ([1]; 10 days, RH-92.5%) was 0.60% and the Character ([1]; 10 days, UV light) was “light yellow powder”. The Moisture content ([1]; 10 days, UV light) was 3.8%, the Total relevant substances ([1]; 10 days, UV light) was 0.70% and the “Stability of the samples (conclusion)” value ([1]; 10 days) was “good stability”. The “Pharmacokinetic properties (conclusion)” value [2] was “good pharmacokinetic properties”, the AUC0-t [2] was 1324 ng·h/mL and the AUCinf [2] was 1340 ng·h/mL. The “Cmax (maximum blood concentration)” value [2] was 134 ng/mL, the “T1/2 (drug elimination half-life)” value [2] was 3.35 h and the “Tmax (time to maximum blood concentration)” value [2] was 4 h. For the same compound, the Total relevant substances ([3]; 0 day) was 0.81%, the “Change in total relevant substances (conclusion)” value [3] was “little increase in total relevant substances” and the Total relevant substances ([3]; 60° C. uncovered-5 days) was 1.1%. It also gave a Total relevant substances ([3]; 60° C. uncovered-10 days) of 2.0%.
